Experimental data: the kinase profiling compilation of Christmann-Franck et al. (2016)

Legend:
Test in all cases: KINOMEscan competition binding
Conditions in all cases: compound 10.0 µM
[1] = molecular target: MARK2 (human) (UniProt Q7KZI7)
[2] = molecular target: DAPK3 (human) (UniProt O43293)
[3] = molecular target: CAMK2A (human) (UniProt Q9UQM7)
[4] = molecular target: NEK4 (human) (UniProt P51957)
[5] = molecular target: PRKCE (human) (UniProt Q02156)
[6] = molecular target: HIPK3 (human) (UniProt Q9H422)
[7] = molecular target: SRPK1 (human) (UniProt Q96SB4)
SRPK1 (human), sequence (Q96SB4 whole entry, looked up): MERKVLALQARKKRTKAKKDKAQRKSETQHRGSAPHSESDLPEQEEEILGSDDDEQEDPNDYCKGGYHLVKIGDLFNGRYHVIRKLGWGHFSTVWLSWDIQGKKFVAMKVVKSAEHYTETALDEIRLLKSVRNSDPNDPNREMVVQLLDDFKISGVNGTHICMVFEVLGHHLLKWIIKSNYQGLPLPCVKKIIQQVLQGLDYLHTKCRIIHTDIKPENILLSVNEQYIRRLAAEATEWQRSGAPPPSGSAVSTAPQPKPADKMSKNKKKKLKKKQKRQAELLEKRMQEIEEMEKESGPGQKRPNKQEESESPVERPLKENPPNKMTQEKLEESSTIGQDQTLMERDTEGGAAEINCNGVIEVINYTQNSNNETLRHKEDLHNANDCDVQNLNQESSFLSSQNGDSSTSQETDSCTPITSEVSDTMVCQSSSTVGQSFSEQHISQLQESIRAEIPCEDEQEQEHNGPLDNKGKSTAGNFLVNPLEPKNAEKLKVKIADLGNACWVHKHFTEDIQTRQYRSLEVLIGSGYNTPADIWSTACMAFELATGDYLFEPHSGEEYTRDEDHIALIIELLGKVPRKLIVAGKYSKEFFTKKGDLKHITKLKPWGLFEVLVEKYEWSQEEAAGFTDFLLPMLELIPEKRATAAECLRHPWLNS

[8] = molecular target: PDGFRA (human) (UniProt P16234)
[9] = molecular target: RIPK4 (human) (UniProt P57078)
RIPK4 (human), sequence (P57078 whole entry, looked up): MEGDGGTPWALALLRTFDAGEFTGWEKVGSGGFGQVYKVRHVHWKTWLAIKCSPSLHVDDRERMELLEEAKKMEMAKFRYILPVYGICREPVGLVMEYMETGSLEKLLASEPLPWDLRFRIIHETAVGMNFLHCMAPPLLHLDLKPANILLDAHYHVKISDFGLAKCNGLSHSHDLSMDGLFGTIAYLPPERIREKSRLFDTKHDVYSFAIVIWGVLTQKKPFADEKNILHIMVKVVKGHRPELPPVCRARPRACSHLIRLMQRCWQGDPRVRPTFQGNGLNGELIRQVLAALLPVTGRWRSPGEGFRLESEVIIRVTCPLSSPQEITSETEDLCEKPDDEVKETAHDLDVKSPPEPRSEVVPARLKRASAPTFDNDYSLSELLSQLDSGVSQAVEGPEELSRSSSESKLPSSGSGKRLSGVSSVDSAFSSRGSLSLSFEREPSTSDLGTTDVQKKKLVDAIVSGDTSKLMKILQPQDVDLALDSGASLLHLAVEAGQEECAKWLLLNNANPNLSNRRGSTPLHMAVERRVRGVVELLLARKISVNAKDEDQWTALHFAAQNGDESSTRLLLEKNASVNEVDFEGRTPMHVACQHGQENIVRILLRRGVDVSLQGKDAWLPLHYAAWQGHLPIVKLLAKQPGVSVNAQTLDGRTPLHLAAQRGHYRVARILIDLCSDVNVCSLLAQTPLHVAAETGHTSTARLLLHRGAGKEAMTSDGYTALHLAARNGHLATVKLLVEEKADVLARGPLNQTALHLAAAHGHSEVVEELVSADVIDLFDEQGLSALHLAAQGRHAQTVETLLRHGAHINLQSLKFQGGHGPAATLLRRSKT

[10] = molecular target: ABL2 (human) (UniProt P42684)
[11] = molecular target: BMPR1A (human) (UniProt P36894)
BMPR1A (human), sequence (P36894 whole entry, looked up): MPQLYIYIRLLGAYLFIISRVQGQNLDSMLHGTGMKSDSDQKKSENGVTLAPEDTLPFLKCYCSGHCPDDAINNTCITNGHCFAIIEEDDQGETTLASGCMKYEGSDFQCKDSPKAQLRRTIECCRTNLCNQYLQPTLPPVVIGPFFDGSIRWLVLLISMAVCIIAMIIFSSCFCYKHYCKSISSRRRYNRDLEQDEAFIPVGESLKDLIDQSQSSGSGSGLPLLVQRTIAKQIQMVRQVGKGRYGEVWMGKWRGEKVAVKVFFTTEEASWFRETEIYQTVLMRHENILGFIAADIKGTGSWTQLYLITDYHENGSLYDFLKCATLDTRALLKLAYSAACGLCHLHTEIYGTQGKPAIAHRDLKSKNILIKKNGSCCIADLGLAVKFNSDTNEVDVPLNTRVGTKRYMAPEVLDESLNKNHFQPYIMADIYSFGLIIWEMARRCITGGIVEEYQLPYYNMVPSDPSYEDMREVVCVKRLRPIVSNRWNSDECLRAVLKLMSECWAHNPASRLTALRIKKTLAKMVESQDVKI

[12] = molecular target: CAMKK1 (human) (UniProt Q8N5S9)
[13] = molecular target: NEK2 (human) (UniProt P51955)
[14] = molecular target: SIK2 (human) (UniProt Q9H0K1)
[15] = molecular target: EPHB1 (human) (UniProt P54762)
[16] = molecular target: STK17A (human) (UniProt Q9UEE5)
[17] = molecular target: SNRK (human) (UniProt Q9NRH2)
[18] = molecular target: MAP3K13 (human) (UniProt O43283)
[19] = molecular target: CAMK2G (human) (UniProt Q13555)
[20] = test system: FLT3 (human), P36888 [D835Y]
[21] = test system: EGFR (human), P00533 [G719C]
[22] = molecular target: TGFBR1 (human) (UniProt P36897)
TGFBR1 (human), sequence (P36897 whole entry, looked up): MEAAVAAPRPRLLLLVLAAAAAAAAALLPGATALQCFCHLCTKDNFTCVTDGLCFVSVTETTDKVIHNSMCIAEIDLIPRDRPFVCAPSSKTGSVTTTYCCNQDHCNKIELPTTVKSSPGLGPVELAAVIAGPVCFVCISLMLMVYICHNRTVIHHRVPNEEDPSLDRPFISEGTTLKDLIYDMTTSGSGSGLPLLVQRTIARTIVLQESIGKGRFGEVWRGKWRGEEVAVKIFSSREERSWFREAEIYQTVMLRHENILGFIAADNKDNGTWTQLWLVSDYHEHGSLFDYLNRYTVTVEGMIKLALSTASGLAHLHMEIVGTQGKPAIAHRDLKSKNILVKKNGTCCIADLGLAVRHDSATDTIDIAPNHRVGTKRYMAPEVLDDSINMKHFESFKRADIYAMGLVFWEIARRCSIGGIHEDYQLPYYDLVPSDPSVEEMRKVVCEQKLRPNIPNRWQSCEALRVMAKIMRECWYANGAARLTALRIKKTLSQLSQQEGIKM

[23] = molecular target: EPHA7 (human) (UniProt Q15375)
[24] = molecular target: FGFR3 (human) (UniProt P22607)
[25] = molecular target: MAP3K5 (human) (UniProt Q99683)
MAP3K5 (human), sequence (Q99683 whole entry, looked up): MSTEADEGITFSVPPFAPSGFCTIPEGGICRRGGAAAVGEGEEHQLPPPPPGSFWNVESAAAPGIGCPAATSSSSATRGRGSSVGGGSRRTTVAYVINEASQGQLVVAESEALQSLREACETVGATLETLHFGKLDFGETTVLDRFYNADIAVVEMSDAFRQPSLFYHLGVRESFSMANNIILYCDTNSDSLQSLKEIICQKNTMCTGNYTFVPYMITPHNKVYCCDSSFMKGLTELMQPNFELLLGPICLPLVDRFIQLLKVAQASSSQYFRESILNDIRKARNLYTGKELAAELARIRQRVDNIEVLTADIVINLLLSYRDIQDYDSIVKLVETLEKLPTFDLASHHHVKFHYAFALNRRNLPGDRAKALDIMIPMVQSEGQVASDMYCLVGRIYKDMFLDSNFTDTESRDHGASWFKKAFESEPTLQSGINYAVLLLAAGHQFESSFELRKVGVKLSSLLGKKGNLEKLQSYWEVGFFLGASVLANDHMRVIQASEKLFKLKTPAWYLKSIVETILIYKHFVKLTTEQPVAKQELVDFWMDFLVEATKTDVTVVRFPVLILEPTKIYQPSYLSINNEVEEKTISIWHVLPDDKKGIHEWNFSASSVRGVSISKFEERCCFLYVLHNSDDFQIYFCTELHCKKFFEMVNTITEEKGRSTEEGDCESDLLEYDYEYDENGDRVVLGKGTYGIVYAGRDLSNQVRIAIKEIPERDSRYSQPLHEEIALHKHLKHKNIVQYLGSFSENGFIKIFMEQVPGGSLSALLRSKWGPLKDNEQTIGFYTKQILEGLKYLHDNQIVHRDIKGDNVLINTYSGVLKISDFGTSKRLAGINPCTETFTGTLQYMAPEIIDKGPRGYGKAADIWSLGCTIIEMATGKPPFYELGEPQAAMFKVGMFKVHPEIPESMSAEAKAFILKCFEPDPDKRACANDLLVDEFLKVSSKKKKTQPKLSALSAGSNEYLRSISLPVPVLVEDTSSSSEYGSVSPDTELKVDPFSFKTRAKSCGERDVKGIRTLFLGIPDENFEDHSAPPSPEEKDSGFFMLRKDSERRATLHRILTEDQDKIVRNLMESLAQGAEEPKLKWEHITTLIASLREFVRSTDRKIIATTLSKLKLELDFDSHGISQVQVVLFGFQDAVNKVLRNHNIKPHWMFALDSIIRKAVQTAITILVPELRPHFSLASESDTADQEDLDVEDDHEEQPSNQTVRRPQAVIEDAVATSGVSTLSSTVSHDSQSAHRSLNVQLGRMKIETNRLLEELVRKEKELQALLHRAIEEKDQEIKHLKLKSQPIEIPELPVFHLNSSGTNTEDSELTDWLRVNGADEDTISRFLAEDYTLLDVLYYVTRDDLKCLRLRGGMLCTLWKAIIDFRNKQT

[26] = molecular target: OXSR1 (human) (UniProt O95747)
[27] = molecular target: IKBKB (human) (UniProt O14920)
[28] = molecular target: SLK (human) (UniProt Q9H2G2)
[29] = molecular target: CDK3 (human) (UniProt Q00526)
[30] = molecular target: MAP4K4 (human) (UniProt O95819)
[31] = molecular target: MERTK (human) (UniProt Q12866)
[32] = molecular target: PKMYT1 (human) (UniProt Q99640)
[33] = molecular target: PIK3CD (human) (UniProt O00329)
[34] = molecular target: RET (human) (UniProt P07949)
[35] = molecular target: CAMK1D (human) (UniProt Q8IU85)
[36] = molecular target: PRKCH (human) (UniProt P24723)
PRKCH (human), sequence (P24723 whole entry, looked up): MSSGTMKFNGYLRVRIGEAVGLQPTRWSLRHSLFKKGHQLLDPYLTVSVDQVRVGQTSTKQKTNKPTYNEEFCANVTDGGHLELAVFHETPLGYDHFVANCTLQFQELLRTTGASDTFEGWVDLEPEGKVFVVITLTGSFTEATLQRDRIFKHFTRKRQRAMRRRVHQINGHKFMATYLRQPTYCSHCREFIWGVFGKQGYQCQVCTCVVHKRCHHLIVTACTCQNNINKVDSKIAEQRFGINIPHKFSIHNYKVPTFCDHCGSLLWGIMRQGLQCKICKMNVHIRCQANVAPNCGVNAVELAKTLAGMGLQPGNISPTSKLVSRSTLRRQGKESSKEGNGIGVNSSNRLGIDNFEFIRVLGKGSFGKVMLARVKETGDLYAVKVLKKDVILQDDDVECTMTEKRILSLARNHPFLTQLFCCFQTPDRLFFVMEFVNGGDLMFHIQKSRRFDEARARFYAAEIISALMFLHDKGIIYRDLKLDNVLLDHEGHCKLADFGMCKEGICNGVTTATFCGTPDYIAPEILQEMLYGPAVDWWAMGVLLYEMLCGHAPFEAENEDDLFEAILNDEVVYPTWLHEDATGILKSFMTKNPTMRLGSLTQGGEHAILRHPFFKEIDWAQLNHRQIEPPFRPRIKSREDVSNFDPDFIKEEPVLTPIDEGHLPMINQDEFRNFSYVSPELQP

[37] = molecular target: NEK6 (human) (UniProt Q9HC98)
[38] = molecular target: TXK (human) (UniProt P42681)
[39] = molecular target: ROCK1 (human) (UniProt Q13464)
[40] = molecular target: CDK17 (human) (UniProt Q00537)

DAPK3 (human), sequence (O43293 whole entry, looked up): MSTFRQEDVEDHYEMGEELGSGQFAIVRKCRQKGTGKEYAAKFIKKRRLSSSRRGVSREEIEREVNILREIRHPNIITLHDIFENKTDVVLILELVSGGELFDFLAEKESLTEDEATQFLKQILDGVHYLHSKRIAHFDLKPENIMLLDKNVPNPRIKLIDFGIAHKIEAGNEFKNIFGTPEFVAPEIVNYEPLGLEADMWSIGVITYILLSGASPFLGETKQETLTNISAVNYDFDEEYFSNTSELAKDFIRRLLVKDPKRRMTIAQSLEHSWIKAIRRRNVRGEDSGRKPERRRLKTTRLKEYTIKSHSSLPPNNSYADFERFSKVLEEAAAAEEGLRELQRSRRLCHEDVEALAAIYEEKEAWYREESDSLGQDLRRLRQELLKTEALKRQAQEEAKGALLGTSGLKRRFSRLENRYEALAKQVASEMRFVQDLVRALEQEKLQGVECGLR

## CCN1CCN(Cc2ccc(NC(=O)c3ccc(C)c(/C=C/c4cnc5[nH]ccc5c4OC)c3)cc2C(F)(F)F)CC1
[1]
  kinase still bound, per cent of control: 68%
[2]
  kinase still bound, per cent of control: 99%
[3]
  kinase still bound, per cent of control: 100%
[4]
  kinase still bound, per cent of control: 33%
[5]
  kinase still bound, per cent of control: 75%
[6]
  kinase still bound, per cent of control: 44%
[7]
  kinase still bound, per cent of control: 1.8%
[8]
  kinase still bound, per cent of control: 0.15%
[9]
  kinase still bound, per cent of control: 56%
[10]
  kinase still bound, per cent of control: 0%
[11]
  kinase still bound, per cent of control: 76%
[12]
  kinase still bound, per cent of control: 100%
[13]
  kinase still bound, per cent of control: 100%
[14]
  kinase still bound, per cent of control: 30%
[15]
  kinase still bound, per cent of control: 0.45%
[16]
  kinase still bound, per cent of control: 1.3%
[17]
  kinase still bound, per cent of control: 95%
[18]
  kinase still bound, per cent of control: 20%
[19]
  kinase still bound, per cent of control: 100%
[20]
  kinase still bound, per cent of control: 2.8%
[21]
  kinase still bound, per cent of control: 0.05%
[22]
  kinase still bound, per cent of control: 100%
[23]
  kinase still bound, per cent of control: 16%
[24]
  kinase still bound, per cent of control: 1.8%
[25]
  kinase still bound, per cent of control: 35%
[26]
  kinase still bound, per cent of control: 74%
[27]
  kinase still bound, per cent of control: 0.15%
[28]
  kinase still bound, per cent of control: 0.6%
[29]
  kinase still bound, per cent of control: 100%
[30]
  kinase still bound, per cent of control: 4.2%
[31]
  kinase still bound, per cent of control: 9.2%
[32]
  kinase still bound, per cent of control: 71%
[33]
  kinase still bound, per cent of control: 78%
[34]
  kinase still bound, per cent of control: 0.1%
[35]
  kinase still bound, per cent of control: 100%
[36]
  kinase still bound, per cent of control: 100%
[37]
  kinase still bound, per cent of control: 100%
[38]
  kinase still bound, per cent of control: 0.7%
[39]
  kinase still bound, per cent of control: 43%
[40]
  kinase still bound, per cent of control: 61%

## N#Cc1cc(-c2ccnc(Nc3ccc(-n4cnc(-c5cccnc5)n4)cc3)n2)cc(N2CCOCC2)c1
[1]
  kinase still bound, per cent of control: 73%
[2]
  kinase still bound, per cent of control: 73%
[3]
  kinase still bound, per cent of control: 16%
[4]
  kinase still bound, per cent of control: 100%
[5]
  kinase still bound, per cent of control: 100%
[6]
  kinase still bound, per cent of control: 5.5%
[7]
  kinase still bound, per cent of control: 30%
[8]
  kinase still bound, per cent of control: 1.2%
[9]
  kinase still bound, per cent of control: 53%
[10]
  kinase still bound, per cent of control: 67%
[11]
  kinase still bound, per cent of control: 28%
[12]
  kinase still bound, per cent of control: 48%
[13]
  kinase still bound, per cent of control: 94%
[14]
  kinase still bound, per cent of control: 33%
[15]
  kinase still bound, per cent of control: 90%
[16]
  kinase still bound, per cent of control: 49%
[17]
  kinase still bound, per cent of control: 90%
[18]
  kinase still bound, per cent of control: 100%
[19]
  kinase still bound, per cent of control: 32%
[20]
  kinase still bound, per cent of control: 14%
[21]
  kinase still bound, per cent of control: 71%
[22]
  kinase still bound, per cent of control: 73%
[23]
  kinase still bound, per cent of control: 85%
[24]
  kinase still bound, per cent of control: 74%
[25]
  kinase still bound, per cent of control: 100%
[26]
  kinase still bound, per cent of control: 96%
[27]
  kinase still bound, per cent of control: 38%
[28]
  kinase still bound, per cent of control: 10%
[29]
  kinase still bound, per cent of control: 45%
[30]
  kinase still bound, per cent of control: 24%
[31]
  kinase still bound, per cent of control: 57%
[32]
  kinase still bound, per cent of control: 65%
[33]
  kinase still bound, per cent of control: 100%
[34]
  kinase still bound, per cent of control: 100%
[35]
  kinase still bound, per cent of control: 87%
[36]
  kinase still bound, per cent of control: 83%
[37]
  kinase still bound, per cent of control: 76%
[38]
  kinase still bound, per cent of control: 60%
[39]
  kinase still bound, per cent of control: 52%
[40]
  kinase still bound, per cent of control: 18%

## CCCS(=O)(=O)Nc1ccc(F)c(C(=O)c2c[nH]c3ncc(Cl)cc23)c1F
[1]
  kinase still bound, per cent of control: 92%
[2]
  kinase still bound, per cent of control: 85%
[3]
  kinase still bound, per cent of control: 84%
[4]
  kinase still bound, per cent of control: 71%
[5]
  kinase still bound, per cent of control: 100%
[6]
  kinase still bound, per cent of control: 46%
[7]
  kinase still bound, per cent of control: 100%
[8]
  kinase still bound, per cent of control: 0.2%
[9]
  kinase still bound, per cent of control: 89%
[10]
  kinase still bound, per cent of control: 36%
[11]
  kinase still bound, per cent of control: 13%
[12]
  kinase still bound, per cent of control: 75%
[13]
  kinase still bound, per cent of control: 49%
[14]
  kinase still bound, per cent of control: 84%
[15]
  kinase still bound, per cent of control: 100%
[16]
  kinase still bound, per cent of control: 44%
[17]
  kinase still bound, per cent of control: 100%
[18]
  kinase still bound, per cent of control: 100%
[19]
  kinase still bound, per cent of control: 96%
[20]
  kinase still bound, per cent of control: 31%
[21]
  kinase still bound, per cent of control: 50%
[22]
  kinase still bound, per cent of control: 60%
[23]
  kinase still bound, per cent of control: 99%
[24]
  kinase still bound, per cent of control: 71%
[25]
  kinase still bound, per cent of control: 74%
[26]
  kinase still bound, per cent of control: 24%
[27]
  kinase still bound, per cent of control: 75%
[28]
  kinase still bound, per cent of control: 15%
[29]
  kinase still bound, per cent of control: 98%
[30]
  kinase still bound, per cent of control: 64%
[31]
  kinase still bound, per cent of control: 94%
[32]
  kinase still bound, per cent of control: 100%
[33]
  kinase still bound, per cent of control: 84%
[34]
  kinase still bound, per cent of control: 76%
[35]
  kinase still bound, per cent of control: 78%
[36]
  kinase still bound, per cent of control: 100%
[37]
  kinase still bound, per cent of control: 91%
[38]
  kinase still bound, per cent of control: 69%
[39]
  kinase still bound, per cent of control: 77%
[40]
  kinase still bound, per cent of control: 56%
